Results from patent US9238697B2, “Polymeric materials and methods” (The Regents of the University of California, priority 2005, dated 2016).
Non-standard residues stand in square brackets, D forms with d. Residues, ends and D or L forms follow the SMILES beside them. ξ: configuration not given here. *: point of attachment. Boc = CC(C)(C)OC(=O)*; ξK = NCCCCC(N)C(=O)O

Experiment: Solubility of peptide monomer
Format: physicochemical
Conditions: water, or water/solvent mixtures
Procedure: As described further below, Poly 1-3 were tested for gene delivery applications. As contemplated structures are highly adaptable, structural variations can be made with relative ease to optimize gene transfection levels while maintaining relatively low levels of cytotoxicity. Initial manipulations were performed involving lengthening the peptidyl monomer sequence with additional L-lysine residues to thereby increase the charge density of the polymer overall and to thereby offer stronger DNA binding. It should be recognized that where increased charge density improves the gene transfectability of the polymer system, more residues can be added until an optimal length is found. […] For this reason, solution phase polymerizations were attempted to yield small polymer chains and cyclic structures. One example of cyclic structures is given in Structure VI below.

## COC(=O)[C@H](CCCCN)NC(=O)C(CCCCNC(=O)OC(C)(C)C)NC(=O)C(CCCCNC(=O)OC(C)(C)C)NC(=O)C(CCCCNC(=O)OC(C)(C)C)NC(=O)[C@H](CCCCN)NC(=O)OC(C)(C)C (stereo partly shown) [pentalysine monomer] (Boc-K[ξK](Boc)[ξK](Boc)[ξK](Boc)K-OMe)
  solubility: insoluble
